Structures are written as SMILES. Entries after “also recorded” stand apart in the source; their conditions may differ. Where two headings read alike, the source gives them in different places.

Test [1] has as its target Tdp1 (Homo sapiens (Human), UniProt Q9NUW8). Briefly: Gel-based assay measuring the inhibition of recombinant Tdp1.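 Further: 5′-32P-labeled single-stranded DNA with 3′-phosphotyrosine incubated with 5 pM enzyme for 15 min at room temperature, inhibition seen as loss of 3′-phosphate product band by densitometry.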 In kind it is biochemical.
Experimental: Tdp1 inhibitory activity was measured by the drug's ability to inhibit the hydrolysis of the phosphodiester linkage between tyrosine and the 3′-end of the DNA substrate, and to prevent the generation of an oligonucleotide with a free 3′-phosphate (N14P). Therefore, the disappearance of the gel band for N14P indicated Tdp1 inhibition.
Gel-Based Assay Measuring the Inhibition of Recombinant Tdp1. A 5′-[^32P]-labeled single-stranded DNA oligonucleotide containing a 3′-phosphotyrosine (N14Y) was generated as described by Dexheimer et al. The DNA substrate was then incubated with 5 pM recombinant Tdp1 in the absence or presence of inhibitor for 15 min at room temperature in a buffer containing 50 mM Tris HCl, pH 7.5, 80 mM KCl, 2 mM EDTA, 1 mM DTT, 40 μg/ml BSA and 0.01% Tween-20. […] Gel images were scanned using a Typhoon 8600 (GE Healthcare) and densitometric analyses were performed using the ImageQuant software (GE Healthcare).
The target in test [2] is Human recombinant Top1 (Homo sapiens (Human), UniProt P11387). Briefly: Topoisomerase I-mediated DNA cleavage reactions.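 On all read-outs here: 3′-end radiolabeled DNA substrate (about 2 nM) incubated with recombinant Top1 and compound for 20 min at 25 °C, cleavage products resolved by denaturing PAGE and phosphoimaging.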 In kind it is biochemical. The note with it: for Top1 (compound-induced DNA cleavage, semiquantitative scale): series (B), relative to 1 μM camptothecin (90) or MJ-III-65 (91).
Chain of Human recombinant Top1 (P11387 whole entry): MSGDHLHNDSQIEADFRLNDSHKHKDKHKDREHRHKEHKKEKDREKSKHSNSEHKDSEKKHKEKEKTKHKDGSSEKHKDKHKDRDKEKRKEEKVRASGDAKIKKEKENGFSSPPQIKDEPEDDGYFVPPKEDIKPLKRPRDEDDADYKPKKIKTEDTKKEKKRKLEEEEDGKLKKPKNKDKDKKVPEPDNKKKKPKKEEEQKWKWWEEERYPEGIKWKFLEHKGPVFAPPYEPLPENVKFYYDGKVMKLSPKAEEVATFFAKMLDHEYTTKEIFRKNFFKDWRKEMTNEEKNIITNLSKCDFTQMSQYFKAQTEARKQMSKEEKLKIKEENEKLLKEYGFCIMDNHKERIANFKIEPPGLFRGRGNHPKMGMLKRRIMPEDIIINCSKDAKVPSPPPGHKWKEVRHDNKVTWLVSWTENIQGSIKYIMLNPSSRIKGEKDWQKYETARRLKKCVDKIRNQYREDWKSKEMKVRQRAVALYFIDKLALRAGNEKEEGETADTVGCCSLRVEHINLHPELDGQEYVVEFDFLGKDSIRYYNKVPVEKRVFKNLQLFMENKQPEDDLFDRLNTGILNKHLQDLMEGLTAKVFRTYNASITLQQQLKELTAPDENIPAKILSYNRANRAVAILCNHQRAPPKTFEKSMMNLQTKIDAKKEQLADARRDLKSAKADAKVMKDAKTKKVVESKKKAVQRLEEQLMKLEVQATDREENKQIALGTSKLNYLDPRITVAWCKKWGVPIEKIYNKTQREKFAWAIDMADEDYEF
Experimental: Additionally, all indenoisoquinoline sulfonates and sulfonamides were tested for Top1 cleavage complex poisoning in a Top1-mediated DNA cleavage assay.
Topoisomerase I-Mediated DNA Cleavage Reactions. Human recombinant Top1 was purified from baculovirus as previously described. DNA cleavage reactions were prepared as previously reported with the exception of the DNA substrate. […] Unincorporated [^32P]dGTP was removed using mini Quick Spin DNA columns (Roche, Indianapolis, Ind.), and the eluate containing the 3′-end-labeled DNA substrate was collected. Approximately 2 nM radiolabeled DNA substrate was incubated with recombinant Top1 in 20 μL of reaction buffer [10 mM Tris-HCl (pH 7.5), 50 mM KCl, 5 mM MgCl2, 0.1 mM EDTA, and 15 μg/mL BSA] at 25° C. for 20 min in the presence of various concentrations of compounds. The reactions were terminated by adding SDS (0.5% final concentration) followed by the addition of two volumes of loading dye (80% formamide, 10 mM sodium hydroxide, 1 mM sodium EDTA, 0.1% xylene cyanol, and 0.1% bromphenol blue). Aliquots of each reaction mixture were subjected to 20% denaturing PAGE. Gels were dried and visualized by using a phosphoimager and ImageQuant software (Molecular Dynamics).
Topoisomerase I-Mediated DNA Cleavage Reactions. Top1 reactions were performed as recently described. […] The reactions were terminated by adding SDS (0.5% final concentration) followed by the addition of two volumes of loading dye (80% formamide, 10 mM sodium hydroxide, 1 mM sodium EDTA, 0.1% xylene cyanol, and 0.1% bromphenol blue). Reactions were subjected to 20% denaturing PAGE. Gels were dried and visualized by using a Typhoon 8600 and ImageQuant software (Molecular Dynamics).

Chain of Tdp1 (Q9NUW8 whole entry): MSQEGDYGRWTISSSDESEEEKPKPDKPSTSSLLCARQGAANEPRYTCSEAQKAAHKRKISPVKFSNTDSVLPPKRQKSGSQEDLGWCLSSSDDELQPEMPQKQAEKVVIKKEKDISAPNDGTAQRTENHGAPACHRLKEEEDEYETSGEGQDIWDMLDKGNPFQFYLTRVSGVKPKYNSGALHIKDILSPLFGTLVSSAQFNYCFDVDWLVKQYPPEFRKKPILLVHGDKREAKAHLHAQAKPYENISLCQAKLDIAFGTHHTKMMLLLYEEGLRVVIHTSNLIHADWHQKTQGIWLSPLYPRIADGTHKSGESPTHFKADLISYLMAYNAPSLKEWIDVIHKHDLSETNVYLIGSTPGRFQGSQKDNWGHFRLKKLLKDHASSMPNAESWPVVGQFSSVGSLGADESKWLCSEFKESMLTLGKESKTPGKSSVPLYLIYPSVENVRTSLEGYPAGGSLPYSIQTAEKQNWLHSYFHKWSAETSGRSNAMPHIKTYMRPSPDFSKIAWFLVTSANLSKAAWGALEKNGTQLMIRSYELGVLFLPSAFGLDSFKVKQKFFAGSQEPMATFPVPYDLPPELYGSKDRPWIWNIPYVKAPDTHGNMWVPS

With `NCCCn1c2c(c3ccccc3c1=O)C(=O)c1ccccc1-2` [Compound 1 of (B)], in test [1], the IC50 is 12 to 37 µM.
On to `COC(=O)C(=O)Nc1ccc2c3c(n(C)c(=O)c2c1)-c1ccccc1C3=O` [Compound 9 of (B), Methyl 2-[(6-Methyl-5,11-dioxo-6,11-dihydro-5H-indeno[1,2-c]isoquinolin-3-yl)amino]-2-oxoacetate], for which, in test [1], the IC50 was above 111 µM and the “Tdp1 inhibitory activity (in words)” value was “inactive”. In addition, the “Top1 (compound-induced DNA cleavage, semiquantitative scale)” value in test [2] was 0.
Consider `COC(=O)CC(=O)Nc1ccc2c3c(n(C)c(=O)c2c1)-c1ccccc1C3=O` [Compound 10 of (B), Methyl 3-[(6-Methyl-5,11-dioxo-6,11-dihydro-5H-indeno[1,2-c]isoquinolin-3-yl)amino]-3-oxopropanoate], for which, in test [1], the IC50 is above 111 µM. The “Top1 (compound-induced DNA cleavage, semiquantitative scale)” value in test [2] is reported as 0.
Take `COC(=O)CCC(=O)Nc1ccc2c3c(n(C)c(=O)c2c1)-c1ccccc1C3=O` [Compound 11 of (B), Methyl 4-[(6-Methyl-5,11-dioxo-6,11-dihydro-5H-indeno[1,2-c]isoquinolin-3-yl)amino]-4-oxobutanoate]: the IC50 in test [1] is above 111 µM. The “Top1 (compound-induced DNA cleavage, semiquantitative scale)” value in test [2] is reported as “(+)”.
With `COC(=O)CCCC(=O)Nc1ccc2c3c(n(C)c(=O)c2c1)-c1ccccc1C3=O` [Compound 12 of (B), Methyl 5-[(6-Methyl-5,11-dioxo-6,11-dihydro-5H-indeno[1,2-c]isoquinolin-3-yl)amino]-5-oxopentanoate], the IC50 in test [1] was above 111 µM. In addition, the “Top1 (compound-induced DNA cleavage, semiquantitative scale)” value in test [2] is listed as “+”.
In the case of `COC(=O)CCCCC(=O)Nc1ccc2c3c(n(C)c(=O)c2c1)-c1ccccc1C3=O` [Compound 13 of (B), Methyl 6-[(6-Methyl-5,11-dioxo-6,11-dihydro-5H-indeno[1,2-c]isoquinolin-3-yl)amino]-6-oxohexanoate], the IC50 in test [1] is above 111 µM. Moreover, the “Top1 (compound-induced DNA cleavage, semiquantitative scale)” value in test [2] is reported as 0.
On to `Cn1c2c(c3ccc(NC(=O)CC(=O)O)cc3c1=O)C(=O)c1ccccc1-2` [Compound 15 of (B), 3-[(6-Methyl-5,11-dioxo-6,11-dihydro-5H-indeno[1,2-c]isoquinolin-3-yl)amino]-3-oxopropanoic Acid], for which, in test [1], the IC50 is above 111 µM and the “Tdp1 inhibitory activity (in words)” value is “inactive”.
For the molecule `COC(=O)CCC(=O)Nc1ccc2c3c(n(CCCN)c(=O)c2c1)-c1ccccc1C3=O` [Compound 24 of (B), Methyl 4-[(6-(3-Aminopropyl)-5,11-dioxo-6,11-dihydro-5H-indeno[1,2-c]isoquinolin-3-yl)amino]-4-oxobutanoate], the IC50 in test [1] fell in the range of 37 to 111 µM. The “Top1 (compound-induced DNA cleavage, semiquantitative scale)” value in test [2] was “(+)”.
Regarding `Cl.NCCCn1c2c(c3ccc(NC(=O)C(=O)O)cc3c1=O)C(=O)c1ccccc1-2` [Compound 32 of (B), 2-[(6-(3-Aminopropyl)-5,11-dioxo-6,11-dihydro-5H-indeno[1,2-c]isoquinolin-3-yl)amino]-2-oxoacetic Acid Hydrochloride], the IC50 in test [1] was above 111 µM. Also, the “Top1 (compound-induced DNA cleavage, semiquantitative scale)” value in test [2] is listed as “+”.
For the molecule `Cl.NCCCn1c2c(c3ccc(NC(=O)CC(=O)O)cc3c1=O)C(=O)c1ccccc1-2` [Compound 33 of (B), 3-[(6-(3-Aminopropyl)-5,11-dioxo-6,11-dihydro-5H-indeno[1,2-c]isoquinolin-3-yl)amino]-3-oxopropanoic Acid Hydrochloride], the IC50 in test [1] is above 111 µM. In addition, in test [2], the “Top1 (compound-induced DNA cleavage, semiquantitative scale)” value is on record as “+”.
Turning to `Cl.NCCCn1c2c(c3ccc(NC(=O)CCC(=O)O)cc3c1=O)C(=O)c1ccccc1-2` [Compound 34 of (B), 4-[(6-(3-Aminopropyl)-5,11-dioxo-6,11-dihydro-5H-indeno[1,2-c]isoquinolin-3-yl)amino]-4-oxobutanoic Acid Hydrochloride], the IC50 in test [1] was above 111 µM. Moreover, the “Top1 (compound-induced DNA cleavage, semiquantitative scale)” value in test [2] is “+”.
On to `Cl.NCCCn1c2c(c3ccc(NC(=O)CCCC(=O)O)cc3c1=O)C(=O)c1ccccc1-2` [Compound 35 of (B), 5-[(6-(3-Aminopropyl)-5,11-dioxo-6,11-dihydro-5H-indeno[1,2-c]isoquinolin-3-yl)amino]-5-oxopentanoic Acid Hydrochloride], for which the IC50 in test [1] was above 111 µM. Also, the “Top1 (compound-induced DNA cleavage, semiquantitative scale)” value in test [2] stood at 0.
Regarding `Cl.NCCCn1c2c(c3ccc(NC(=O)CCCCC(=O)O)cc3c1=O)C(=O)c1ccccc1-2` [Compound 36 of (B), 6-[(6-(3-Aminopropyl)-5,11-dioxo-6,11-dihydro-5H-indeno[1,2-c]isoquinolin-3-yl)amino]-6-oxohexanoic Acid Hydrochloride], the IC50 in test [1] was above 111 µM. In addition, the “Top1 (compound-induced DNA cleavage, semiquantitative scale)” value in test [2] is recorded as “+”.
Regarding `CCOC(=O)CNc1ccc2c3c(n(C)c(=O)c2c1)-c1ccccc1C3=O` [Compound 38 of (B), Ethyl 2-[(6-Methyl-5,11-dioxo-6,11-dihydro-5H-indeno[1,2-c]isoquinolin-3-yl)amino]acetate], in test [1], the IC50 is above 111 µM. Further, the “Tdp1 inhibitory activity (in words)” value in test [1] (listed as 38) was “inactivity; also recorded: inactive”. In addition, the “Top1 (compound-induced DNA cleavage, semiquantitative scale)” value in test [2] is reported as 0.
Take `Cn1c2c(c3ccc(NCC(=O)O)cc3c1=O)C(=O)c1ccccc1-2` [Compound 41 of (B), 2-[(6-Methyl-5,11-dioxo-6,11-dihydro-5H-indeno[1,2-c]isoquinolin-3-yl)-amino]acetic Acid]: the IC50 in test [1] is above 111 µM. For the same molecule, the “Tdp1 inhibitory activity (in words)” value in test [1] (listed as 41) was “inactivity; also recorded: inactive”. The “Top1 (compound-induced DNA cleavage, semiquantitative scale)” value in test [2] is listed as 0.
Consider `CC(C)(C)OC(=O)NCCCn1c2c(c3ccc(NCC(=O)O)cc3c1=O)C(=O)c1ccccc1-2` [Compound 42 of (B), 2-((6-(3-((tert-Butoxycarbonyl)amino)propyl)-5,11-dioxo-6,11-dihydro-5H-indeno[1,2-c]isoquinolin-3-yl)amino)acetic Acid], for which, in test [1], the half-maximal inhibitory concentration (IC50) is above 111 µM and the “Tdp1 inhibitory activity (in words)” value is given as “inactivity”. The “Top1 (compound-induced DNA cleavage, semiquantitative scale)” value in test [2] was 0.
In the case of `COc1ccc2c(c1)-c1c(c3ccc([N+](=O)[O-])cc3c(=O)n1CCCBr)C2=O` [Compound 49 of (B), 6-(3-Bromopropyl)-5,6-dihydro-8-methoxy-3-nitro-5,11-dioxo-11H-indeno[1,2-c]isoquinoline], in test [1], the IC50 is above 111 µM and the “Tdp1 inhibitory activity (in words)” value was “very weak or inactive”. Further, the “Top1 (compound-induced DNA cleavage, semiquantitative scale)” value in test [2] is “+++”.
In the case of `COc1ccc2c(c1)-c1c(c3ccc([N+](=O)[O-])cc3c(=O)n1CCCN=[N+]=[N-])C2=O` [Compound 50 of (B), 6-(3-Azidopropyl)-5,6-dihydro-8-methoxy-3-nitro-5,11-dioxo-11H-indeno[1,2-c]isoquinoline], in test [1], the IC50 was above 111 µM and the “Tdp1 inhibitory activity (in words)” value is “very weak or inactive”. Also, in test [2], the “Top1 (compound-induced DNA cleavage, semiquantitative scale)” value is “+”.
On to `Cl.NCCCCn1c2c(c3ccccc3c1=O)C(=O)c1ccccc1-2` [Compound 71 of (A)], for which the “Top1 inhibition (semiquantitative scale)” value in test [2] (series (A), relative to 1 μM camptothecin) is “+++ (between 75% and 95% activity)”.

For orientation: IC50 means the concentration at which inhibition is half-maximal.

Values taken from patent US8912213B2, “Synthesis and use of dual tyrosyl-DNA phosphodiesterase I (TDP1)- topoisomerase I (TOP1) inhibitors” (Purdue Research Foundation, priority 2012, dated 2014).
